# From patent US20240352000A1, “NOVEL PYRIMIDINE-2,4-DIAMINE DERIVATIVES, PREPARATION METHOD THEREFOR, AND PHARMACEUTICAL COMPOSITION CONTAINING SAME AS ACTIVE INGREDIENT FOR PREVENTION OR TREATMENT OF CANCER” (KOREA RESEARCH INSTITUTE OF CHEMICAL TECHNOLOGY, priority 2021, published 2024)
# Key:
# [1] = tested on: Ba/F3 EGFR V769_D770insASV; assay: CellTiter-Glo cell growth, Ba/F3 EGFR Ex20 insertion mutant; type: cell-based; conditions: 72 hours
# Method: An experiment to measure the activity of the compounds of the present invention against the Ba/F3 EGFR V769_D770insASV mutant cell line was performed as follows using the CellTiter-Glo system sold by Promega. The CellTiter-Glo assay is a method to confirm the cell viability by measuring ATP present in cells in cell culture. For the Ba/F3 EGFR V769_D770insASV mutant cell line, a cell line provided by Crown Bioscience was purchased and used. The Ba/F3 EGFR V769_D770insASV mutant cell line was cultured in RPMI containing 10% FBS and 1% penicillin-streptomycin with 1 μg/ml of puromycin in an incubator at 37° C. and 5% CO2.
# Analysis of the inhibitory ability effect of the compounds against the EGFR mutant cell growth was conducted according to the following analysis reaction recipe.
# (§1) 1000 cells/100 μL were passaged and cultured in a 96-well cell culture plate, and after 24 hours, treated with the compound represented by Formula 1 at a concentration of 0, 0.01, 0.03, 0.1, 0.3, 1, 3, and 10 (M). After reaction for 72 hours, the plate treated with the compound was left at room temperature for 30 minutes, then further treated with 100 μL of reagent, and shaken at room temperature for 10 minutes. Finally, the ratio of fluorescence values at 570 nm was obtained using the equipment to quantitatively measure and confirmed the cell growth inhibitory ability of the compounds. The measurement values measured at eight compound concentrations were analyzed using the Prism program (version 5.01, Graphpad Software, Inc.), and the IC50 value, which is an indicator of the cell growth inhibitory ability of the compound, was calculated.
# Ba/F3 EGFR L858R = assay: CellTiter-Glo cell viability, Ba/F3 EGFR L858R; type: cell-based; conditions: 72 hours
# Method: (§2) An experiment to measure the activity of the compounds of the present invention against the mutant Ba/F3 EGFR cell line was performed as follows using the CellTiter-Glo system sold by Promega. The CellTiter-Glo assay is a method to confirm the cell viability by measuring ATP present in cells in cell culture. The Ba/F3 EGFR L858R, Ba/F3 EGFR L858R/T790M, Ba/F3 EGFR L858R/T790M/C797S mutant cell line was used. The Ba/F3 EGFR L858R, Ba/F3 EGFR L858R/T790M, and Ba/F3 EGFR L858R/T790M/C797S mutant cell lines was cultured in RPMI containing 10% FBS and 1% penicillin-streptomycin with 1 μg of puromycin in an incubator at 37° C. and 5% CO2.
# (§3) Analysis of the inhibitory ability effect of the compounds against EGFR was conducted according to the following analysis reaction recipe.
# as §1, with “2500 cells/90 μl” for “1000 cells/100 μL”, “(μM).” for “(M).”, “μl” for “μL”, “the” for “the cell growth”
# Ba/F3 EGFR del19/T790M = assay: CellTiter-Glo cell viability, Ba/F3 EGFR del19/T790M; type: cell-based; conditions: 72 hours
# Method: An experiment to measure the activity of the compounds of the present invention against the mutant Ba/F3 EGFR cell line was performed as follows using the CellTiter-Glo system sold by Promega. The CellTiter-Glo assay is a method to confirm the cell viability by measuring ATP present in cells in cell culture. For the Ba/F3 EGFR del19, Ba/F3 EGFR del19/T790M, Ba/F3 del19/T790M/C797S mutant cell line, a cell line provided by Crown Bioscience was purchased and used. The Ba/F3 EGFR del19, Ba/F3 EGFR del19/T790M, Ba/F3 del19/T790M/C797S mutant cell line was cultured in RPMI containing 10% FBS and 1% penicillin-streptomycin with 1 μg of puromycin in an incubator at 37° C. and 5% CO2.
# as §3
# as §1, with “2500 cells/90 μL” for “1000 cells/100 μL”, “10 (μM).” for “10 (M).”, “100 μl” for “100 μL”, “the” for “the cell growth”
# EGFR del19/T790M = EGFR del19/T790M (Homo sapiens (Human), UniProt P00533, DEL746-750/T790M); assay: HTRF enzyme assay, EGFR del19/T790M mutant enzyme; type: biochemical; conditions: recombinant enzyme, 37° C. 2 hours
# Sequence of EGFR del19/T790M (P00533 other isoform, or with tags, fused parts or gaps T790M/del 1-668/del 746-750 limits assumed): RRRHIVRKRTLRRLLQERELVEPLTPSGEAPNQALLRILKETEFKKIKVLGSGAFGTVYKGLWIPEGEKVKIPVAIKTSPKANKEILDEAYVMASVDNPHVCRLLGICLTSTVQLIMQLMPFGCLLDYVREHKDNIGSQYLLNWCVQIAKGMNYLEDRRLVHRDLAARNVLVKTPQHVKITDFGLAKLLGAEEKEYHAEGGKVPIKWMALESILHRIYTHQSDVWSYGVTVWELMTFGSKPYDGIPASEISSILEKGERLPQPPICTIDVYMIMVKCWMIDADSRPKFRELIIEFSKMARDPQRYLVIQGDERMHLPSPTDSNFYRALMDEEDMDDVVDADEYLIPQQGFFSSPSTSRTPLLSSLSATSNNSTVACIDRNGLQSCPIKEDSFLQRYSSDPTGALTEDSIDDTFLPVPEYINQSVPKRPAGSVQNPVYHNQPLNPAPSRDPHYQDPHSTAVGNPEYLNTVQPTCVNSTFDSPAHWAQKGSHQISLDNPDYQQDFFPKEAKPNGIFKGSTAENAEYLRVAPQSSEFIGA
# Method: An experiment to measure the activity of the compounds of the present invention against EGFR mutant enzymes was performed as follows using the HTRF system sold by Cisbio. For the EGFR del19/T790M mutant enzyme, a recombinant protein provided by Carna Biosciences was purchased and used, and for the EGFR del19/T790M/C797S mutant enzyme, a protein provided by SignalChem was purchased and used as an enzyme source.
# The composition of the assay buffer used for measuring the activity was 50 mM Tris-HCl pH 7.5, 100 mM NaCl, 7.5 mM MgCl2, 3 mM KCl, 0.01% Tween 20, 0.1% BSA, and 1 mM DTT. Here, an enzyme reaction was performed using ATP at a concentration of […] and a peptide substrate labeled with biotin at a concentration of […]. Analysis of the inhibitory effect of the compounds against the EGFR activity was conducted according to the following analysis reaction recipe. • Component 1: 4 μL of an EGFR mutant enzyme • Component 2: 2 μL of a compound solution • Component 3: 4 μL of ATP and a peptide labeled with biotin
# The enzyme reaction was started by first mixing Component 1 and Component 2 and then adding Component 3. After reaction at 37° C. for 2 hours, […] of measurement solution consisting of streptavidin-XL665 and europium-labeled anti-phosphotyrosine antibody provided by Cisbio was added to the enzyme reaction solution and reacted at room temperature for 1 hour. Finally, the ratio of fluorescence values at 615 nm and 665 nm was obtained using the Envision equipment from Perkin-Elmer to quantitatively measure the enzyme activity and confirmed the inhibitory ability of the compounds. The measurement values measured at seven compound concentrations were analyzed using the Prism program (version 5.01, Graphpad Software, Inc.), and the IC50 value, which is an indicator of the inhibitory ability of the compound, was calculated.
# Ba/F3 EGFR L858R/T790M = assay: CellTiter-Glo cell viability, Ba/F3 EGFR L858R/T790M; type: cell-based; conditions: 72 hours
# Method: as §2, §3
# as §1, with “2500 cells/90 μl” for “1000 cells/100 μL”, “(μM).” for “(M).”, “μl” for “μL”, “the” for “the cell growth”
Structure (SMILES),IC50 [1] [nM],IC50 (Ba/F3 EGFR L858R) [nM],IC50 (Ba/F3 EGFR del19/T790M) [nM],IC50 (EGFR del19/T790M) [nM],IC50 (Ba/F3 EGFR L858R/T790M) [nM]
"COc1cc(N2CCC(N3CCN(C)CC3)CC2)ccc1Nc1ncc(Cl)c(Nc2cccc3c2N(S(C)(=O)=O)CC3)n1 [Example 2, 5-chloro-N2-(2-methoxy-4-(4-(4-methylpiperazin-1-yl)piperidin-1-yl)phenyl)-N4-(1-(methylsulfonyl)indolin-7-yl)pyrimidine-2,4-diamine]",210,< 30,< 100,< 1,< 30
"COc1cc(N2CCC(N3CCN(C)CC3)CC2)ccc1Nc1ncc(Cl)c(Nc2cccc3c2N(S(C)(=O)=O)CCC3)n1 [Example 5, 5-chloro-N2-(2-methoxy-4-(4-(4-methylpiperazin-1-yl)piperidin-1-yl)phenyl)-N4-(1-(methylsulfonyl)-1,2,3,4-tetrahydroquinolin-8-yl)pyrimidine-2,4-diamine]",360,< 30,< 30,< 1,< 30
